Laboratory results taken from patent US10793520B2, “Sulfonylaminobenzamide compound and pest control agent” (Nippon Soda Co., Ltd., priority 2016, dated 2020).

System: Mythimna separata
Assay: Efficacy test against Mythimna separata (treated artificial feed)
Conditions: in vivo
Procedure: Five parts of the compound of the present invention, 93.6 parts of dimethylformamide and 1.4 parts of a polyoxyethylene alkyl aryl ether were mixed together and dissolved to obtain an emulsion (1) containing 5% of the active constituent.
The mortality rate was calculated using the following equation. Mortality rate (%)=(number of dead pests/number of test pests)×100
First, 0.8 g of an artificial feed (Insecta LFS, manufactured by Nosan Corporation) and 1 μl of the emulsion (I) were mixed thoroughly, and 0.2 g of the resulting mixture was placed in each of the treatment areas of a plastic test container (volume: 1.4 ml) to complete preparation of a test feed.
Two second-instar larvae of Mythimna separata were inoculated into each treatment area, and the test container was sealed with a plastic lid. The sealed container was placed in a temperature-controlled room at 25° C., and the mortality rate and the amount of feed consumed were determined on the fifth day. The test was repeated. Further, a test performed under the same conditions, but with the exception of excluding the compound of the present invention from the emulsion (1), was used as a control.

COC(=O)c1cc(Cl)ccc1NC(=O)c1ccc(C(F)(F)F)cc1NS(=O)(=O)C(F)(F)F [a-60]
mortality rate against Mythimna separata, or amount of feed consumed relative to control: 100%, or the amount of feed consumed was 10% or less

CCOC(=O)c1cc(Br)ccc1NC(=O)c1ccc(C(F)(F)F)cc1NS(=O)(=O)C(F)(F)F [a-61]
mortality rate against Mythimna separata, or amount of feed consumed relative to control: 100%, or the amount of feed consumed was 10% or less

COC(=O)c1cc(I)ccc1NC(=O)c1ccc(C(F)(F)F)cc1NS(=O)(=O)C(F)(F)F [a-62]
mortality rate against Mythimna separata, or amount of feed consumed relative to control: 100%, or the amount of feed consumed was 10% or less

COC(=O)c1ccc(C(F)(F)F)cc1NC(=O)c1ccc(C(F)(F)F)cc1NS(=O)(=O)C(F)(F)F [a-63]
mortality rate against Mythimna separata, or amount of feed consumed relative to control: 100%, or the amount of feed consumed was 10% or less

O=C(Nc1ccc(C(F)(F)F)c(F)c1)c1ccc(C(F)(F)F)cc1NS(=O)(=O)C(F)(F)F [a-64]
mortality rate against Mythimna separata, or amount of feed consumed relative to control: 100%, or the amount of feed consumed was 10% or less

CCC(=O)c1cc(C(F)(F)F)ccc1NC(=O)c1ccc(C(F)(F)F)cc1NS(=O)(=O)C(F)(F)F [a-66]
mortality rate against Mythimna separata, or amount of feed consumed relative to control: 100%, or the amount of feed consumed was 10% or less

COC(=O)c1cc(C#N)ccc1NC(=O)c1ccc(C(F)(F)F)cc1NS(=O)(=O)C(F)(F)F [a-67]
mortality rate against Mythimna separata, or amount of feed consumed relative to control: 100%, or the amount of feed consumed was 10% or less

O=C(Nc1ccc(Br)cc1Cl)c1ccc(C(F)(F)F)cc1NS(=O)(=O)C(F)(F)F [a-68]
mortality rate against Mythimna separata, or amount of feed consumed relative to control: 100%, or the amount of feed consumed was 10% or less

O=C(Nc1ccc(Br)c(Cl)c1)c1ccc(C(F)(F)F)cc1NS(=O)(=O)C(F)(F)F [a-69]
mortality rate against Mythimna separata, or amount of feed consumed relative to control: 100%, or the amount of feed consumed was 10% or less

O=C(Nc1ccc(Cl)c(C(F)(F)F)c1)c1ccc(C(F)(F)F)cc1NS(=O)(=O)C(F)(F)F [a-70]
mortality rate against Mythimna separata, or amount of feed consumed relative to control: 100%, or the amount of feed consumed was 10% or less

COC(=O)c1cc(Cl)cc(Cl)c1NC(=O)c1ccc(C(F)(F)F)cc1NS(=O)(=O)C(F)(F)F [a-71]
mortality rate against Mythimna separata, or amount of feed consumed relative to control: 100%, or the amount of feed consumed was 10% or less

COC(=O)c1cc(Br)ccc1NC(=O)c1ccc(Br)cc1NS(=O)(=O)C(F)(F)F [a-73]
mortality rate against Mythimna separata, or amount of feed consumed relative to control: 100%, or the amount of feed consumed was 10% or less

COC(=O)c1cc([N+](=O)[O-])ccc1NC(=O)c1ccc(C(F)(F)F)cc1NS(=O)(=O)C(F)(F)F [a-75]
mortality rate against Mythimna separata, or amount of feed consumed relative to control: 100%, or the amount of feed consumed was 10% or less

O=C(Nc1ccc(Br)cc1-n1cccn1)c1ccc(C(F)(F)F)cc1NS(=O)(=O)C(F)(F)F [a-76]
mortality rate against Mythimna separata, or amount of feed consumed relative to control: 100%, or the amount of feed consumed was 10% or less

COC(=O)c1cc(F)c(F)cc1NC(=O)c1ccc(C(F)(F)F)cc1NS(=O)(=O)C(F)(F)F [a-78]
mortality rate against Mythimna separata, or amount of feed consumed relative to control: 100%, or the amount of feed consumed was 10% or less

COC(=O)c1cc(I)c(Cl)cc1NC(=O)c1ccc(C(F)(F)F)cc1NS(=O)(=O)C(F)(F)F [a-79]
mortality rate against Mythimna separata, or amount of feed consumed relative to control: 100%, or the amount of feed consumed was 10% or less

O=C(Nc1cc(C(F)(F)F)ccc1-n1cccn1)c1ccc(C(F)(F)F)cc1NS(=O)(=O)C(F)(F)F [a-81]
mortality rate against Mythimna separata, or amount of feed consumed relative to control: 100%, or the amount of feed consumed was 10% or less

COC(=O)c1cc(C(F)(F)F)c(Cl)cc1NC(=O)c1ccc(C(F)(F)F)cc1NS(=O)(=O)C(F)(F)F [a-82]
mortality rate against Mythimna separata, or amount of feed consumed relative to control: 100%, or the amount of feed consumed was 10% or less

COC(=O)c1cc(Br)c(Cl)cc1NC(=O)c1ccc(C(F)(F)F)cc1NS(=O)(=O)C(F)(F)F [a-83]
mortality rate against Mythimna separata, or amount of feed consumed relative to control: 100%, or the amount of feed consumed was 10% or less

COC(=O)c1cc(Br)ccc1NC(=O)c1cc(C(F)(F)F)c(Cl)cc1NS(=O)(=O)C(F)(F)F [a-84]
mortality rate against Mythimna separata, or amount of feed consumed relative to control: 100%, or the amount of feed consumed was 10% or less

COC(=O)c1cc(Br)c(F)cc1NC(=O)c1ccc(C(F)(F)F)cc1NS(=O)(=O)C(F)(F)F [a-85]
mortality rate against Mythimna separata, or amount of feed consumed relative to control: 100%, or the amount of feed consumed was 10% or less

COC(=O)c1cc(C(F)(F)F)c(F)cc1NC(=O)c1ccc(C(F)(F)F)cc1NS(=O)(=O)C(F)(F)F [a-86]
mortality rate against Mythimna separata, or amount of feed consumed relative to control: 100%, or the amount of feed consumed was 10% or less

COC(=O)c1cc(F)c(F)cc1NC(=O)c1cc(F)c(F)cc1NS(=O)(=O)C(F)(F)F [a-87]
mortality rate against Mythimna separata, or amount of feed consumed relative to control: 100%, or the amount of feed consumed was 10% or less

COC(=O)c1cc(F)c(F)cc1NC(=O)c1cc(Br)c(Cl)cc1NS(=O)(=O)C(F)(F)F [a-88]
mortality rate against Mythimna separata, or amount of feed consumed relative to control: 100%, or the amount of feed consumed was 10% or less

COC(=O)c1cc(Cl)c(F)cc1NC(=O)c1ccc(C(F)(F)F)cc1NS(=O)(=O)C(F)(F)F [a-90]
mortality rate against Mythimna separata, or amount of feed consumed relative to control: 100%, or the amount of feed consumed was 10% or less

COC(=O)c1ccc(Cl)cc1NC(=O)c1ccc(C(F)(F)F)cc1NS(=O)(=O)C(F)(F)F [a-92]
mortality rate against Mythimna separata, or amount of feed consumed relative to control: 100%, or the amount of feed consumed was 10% or less

COC(=O)c1cnc(Cl)cc1NC(=O)c1ccc(C(F)(F)F)cc1NS(=O)(=O)C(F)(F)F [a-96]
mortality rate against Mythimna separata, or amount of feed consumed relative to control: 100%, or the amount of feed consumed was 10% or less

COC(=O)c1cc(F)c(F)cc1NC(=O)c1cc(Cl)c(Cl)cc1NS(=O)(=O)C(F)(F)F [a-97]
mortality rate against Mythimna separata, or amount of feed consumed relative to control: 100%, or the amount of feed consumed was 10% or less

COC(=O)c1cc(F)c(F)cc1NC(=O)c1cc(F)c(C(F)(F)F)cc1NS(=O)(=O)C(F)(F)F [a-98]
mortality rate against Mythimna separata, or amount of feed consumed relative to control: 100%, or the amount of feed consumed was 10% or less

COC(=O)c1cc(F)c(F)cc1NC(=O)c1cc(C(F)(F)F)c(F)cc1NS(=O)(=O)C(F)(F)F [a-99]
mortality rate against Mythimna separata, or amount of feed consumed relative to control: 100%, or the amount of feed consumed was 10% or less

COC(=O)c1cc(F)c(F)cc1NC(=O)c1ccc(-c2ccc(C(F)(F)F)nc2)cc1NS(=O)(=O)C(F)(F)F [a-100]
mortality rate against Mythimna separata, or amount of feed consumed relative to control: 100%, or the amount of feed consumed was 10% or less

O=C(Nc1ccc(C(F)(F)F)cc1[N+](=O)[O-])c1ccc(C(F)(F)F)cc1NS(=O)(=O)C(F)(F)F [a-103]
mortality rate against Mythimna separata, or amount of feed consumed relative to control: 100%, or the amount of feed consumed was 10% or less

COC(=O)c1cc(OC(F)(F)F)ccc1NC(=O)c1ccc(C(F)(F)F)cc1NS(=O)(=O)C(F)(F)F [a-109]
mortality rate against Mythimna separata, or amount of feed consumed relative to control: 100%, or the amount of feed consumed was 10% or less

COC(=O)c1cc(OC(F)(F)F)ccc1NC(=O)c1cc(F)c(F)cc1NS(=O)(=O)C(F)(F)F [a-110]
mortality rate against Mythimna separata, or amount of feed consumed relative to control: 100%, or the amount of feed consumed was 10% or less

COC(=O)c1cc(C(F)(F)F)ccc1NC(=O)c1cc(F)c(F)cc1NS(=O)(=O)C(F)(F)F [a-111]
mortality rate against Mythimna separata, or amount of feed consumed relative to control: 100%, or the amount of feed consumed was 10% or less
